Measured values: ChEMBL document CHEMBL1212812, “Multi-target spectral moment QSAR versus ANN for antiparasitic drugs against different parasite species” (Bioorg Med Chem, 2010)

Experiments:
Leishmania = assay: Antimicrobial activity against Leishmania; format: functional
Leishmania mexicana = assay: Antimicrobial activity against Leishmania mexicana; format: functional, organism-based
Leishmania donovani = assay: Antimicrobial activity against Leishmania donovani; format: functional, organism-based
Leishmania major = assay: Antimicrobial activity against Leishmania major; format: functional, organism-based
Trypanosoma cruzi = assay: Antimicrobial activity against Trypanosoma cruzi; format: functional, organism-based; conditions: Trypanosoma cruzi
Leishmania amazonensis = assay: Antimicrobial activity against Leishmania amazonensis; format: functional, organism-based
Plasmodium falciparum = assay: Antimicrobial activity against Plasmodium falciparum; format: functional, organism-based

## C(=N\Nc1ccccc1)/c1ccc(N2CCN(c3ccc(/C=N/Nc4ccccc4)cc3)CC2)cc1
Leishmania
  IC50: 34 µM

## N=C(N)c1ccc(OCCCCCOc2ccc(C(=N)N)cc2)cc1 [PENTAMIDINE]
Leishmania mexicana
  IC50: 1 µM
Leishmania donovani
  IC50: 1 µM

## C[C@]12CC[C@H](O)C[C@@H]1CC[C@@H]1[C@@H]2CC[C@@]2(C)[C@H]1CC[C@@H]2[C@@](C)(O)c1ccncc1Cl
Leishmania major
  IC50: 8 µM
Trypanosoma cruzi
  IC50: 1 µM
Leishmania amazonensis
  IC50: 1 µM

## CN1CCN(C)C1c1ccc(N2CCN(c3ccc(C4N(C)CCN4C)cc3)CC2)cc1
Plasmodium falciparum
  IC50: 1 µM
Leishmania
  IC50: 100 µM

## C[C@]12CC[C@H](O)C[C@@H]1CC[C@@H]1[C@@H]2CC[C@@]2(C)[C@H]1CC[C@@H]2[C@@](C)(O)c1ccncc1
Leishmania major
  IC50: 12 µM
Trypanosoma cruzi
  IC50: 1 µM
Leishmania amazonensis
  IC50: 1 µM

## C[C@]12CC[C@H](O)C[C@@H]1CC[C@@H]1[C@@H]2CC[C@@]2(C)[C@H]1CC[C@@H]2[C@@](C)(O)c1ccccn1
Leishmania major
  IC50: 100 µM
Trypanosoma cruzi
  IC50: 1 µM
Leishmania amazonensis
  IC50: 3 µM

## N=C(N)c1cccc(C(=N)N)c1-c1cc2ccccc2[nH]1
Leishmania mexicana
  IC50: 3 µM
